{
  "source": "patent US20180318291A1",
  "about": "“USE OF AMINOTHIAZOLE MYD88 SPECIFIC INHIBITOR TJM2010-5” (WUHAN INNAMUNE PHARMACEUTICAL INC. LTD., priority 2015, published 2018)",
  "key": {"Balb/c mice": {"tested_on": "Balb/c mice", "experiment": "AOM/DSS chronic colitis and colitis-associated colorectal cancer (CAC) model", "format": "in vivo", "experimental": "Construct the chronic colitis and colitis-associated colorectal cancer (CAC) model: apply intraperitoneal injection of 10 mg/Kg azoxymethane (AOM) (Sigma-Aldrich Chemical) to 40Balb/c mice, and start to execute three cycles of feeding of drinking water containing 2.5% of dextran sodium sulfate (DSS) (MP Biomedicals) 7 days later, and each cycle consists one week of feeding DSS water and two weeks of feeding common fresh water. Then, observe them in the following 10 weeks. […] 100% of mice in this group have colorectal cancer.\nTJM2010-5 treatment group: Provide intragastric administration of TJM2010-5 of 50 mg/kg to 20 Balb/c mice in two days before providing the treatment mentioned above, and observe them in ten weeks.\nMechanism study: Take the specimen of serum, colon, and spleen etc. from 4 mice in each group 2 weeks and 7 weeks later to detect the infiltration of IRAK4 and inflammatory cytokines, macrophage and Gr-1^highCD11b^high MDSC, and the proportion of LPMCs (lamina propria mononuclearcells) F4/80^+CD11b^+ macrophage etc.\nThe experimental procedure is the same with that of the experiment on effect of TJM2010-5 in preventing and treating colitis and colorectal cancer: Apply intragastric administration of TJM2010-1, TJM2010-2, TJM2010-3, TJM2010-4, TJM2010-5 of 50 mg/kg to 20 Balb/c mice in each group of totally 6 groups, and then, observe them in the following 10 weeks. The mice with colitis and colorectal cancer in the group corresponding to TJM2010-5 and TJM2010-1, TJM2010-2, TJM2010-3, TJM2010-4, TJM2010-5 accounts 0%, 71.52%, 42.28%, 60.19%, 81.34% respectively; 2. TJM2010-5 can 100% prevent and cure chronic colitis and prevent the colorectal cancer incurred by chronic colitis. […] Other aminothiazole compound has no or little such curative effect."}, "DC": {"tested_on": "DC", "experiment": "CD80/CD86 expression on bone marrow DC by flow cytometry", "format": "cell-based, mice", "experimental": "1. Derive the bone marrow cell from the BALB/c mice administrated with TJM2010-5, destruct the red blood cell, and place them into the RPMI1640 medium with the concentration of 2×10^6/ML (adding GM-CSF of 10 ng/ml, IL-4 of 10 ng/ml);\n2. Remove the suspension cell 48 hours later, and collect the suspension and anchorage-dependent cell on day 6.\n3. Place DCs into […] of TJM2010-5 for cultivating for 1 hour, add necrotic myocardium supernate, LPS (200 ng/ml), Poly I:C (20 mg/ml), CpG (10 mg/ml) to cultivate the cells for 12 hours.\n4. Add the flow antibody FITC to label anti-CD80, CD86, and conduct detection with machine.\nDC: Place the cells into a 48-pore plate, the number of cells is 1×10^6/pore, and 1 ml of medium system is added to each pore. Firstly, add TJM2010-5 of different concentration gradients to pre-incubate the cells for 2 h, then, add the LPS to get the final concentration of 1 ug/ml, and then incubate them in CO2 incubator at 37° C. for one night (12 h).\nAdd the flow antibody FITC to label anti-CD80, CD86, and conduct detection with machine."}, "NOD mice": {"tested_on": "NOD mice", "experiment": "diabetes mellitus type I model in NOD mice", "format": "in vivo", "settings": "150 mg/kg/d intraperitoneal, observed 30 weeks, FIG. 4", "experimental": "1. Experimental groups: MyD88KO NOD mice, MyD88KO/+NOD mice, NOD mice TJM2010-5 treatment group.\n2. Treatment group: Provide intraperitoneal injection of TJM2010-5 dissolved in 0.5% CMC of 150 mg/kg/d on the day before antigen injection, and on day 0 to day 3, and day 5, 7, 9, 11, 13 and 15 day after injection.\n3. Provide intraperitoneal injection of mycobacterium antigen to mice in each group and monitor the concentration constantly.\n4. Feed in clean level and observe for 30 weeks, and take the tail venous blood to test the non-fasting blood-glucose. The standard for diabetes modeling is obtaining the blood-glucose no less than 22 mmol/L for 2 times successively."}, "[1]": {"tested_on": "C57bl/6 mice lymphocytes with Bal b/c DC", "experiment": "mixed lymphocyte culture, T cell proliferation after CpG stimulated DC activation", "format": "cell-based", "settings": "10, 20, 40 μM, third day, FIG. 8", "experimental": "1. Take the thigh bone of Bal b/c mice, separate the bone marrow cell and add the GMS-CSF and IL-4 cytokines to cultivate marrow-derived DC.\n2. Cultivate them until the sixth day, and dissociate the cells to remove immature DC. Conduct centrifugation and suspend them with 1640 medium.\n3. Add mitomycin (to let the final concentration up to 50 μg/ml), and conduct water bath at 37° C. for 15 min Wash in 1640 medium and count.\n4. Take the spleen of C57bl/6 mice, separate splenic lymphocytes with separating medium of mice lymphocytes and count.\n5. Take the splenic lymphocytes of C57bl/6 mice and label CFSE.\n6. Mix DC derived from Bal b/c and C57bl/6 mice lymphocytes for the mixed lymphocyte culture. And the grouped as follows:\nControl group: Add CPG other than TJM2010-5 in the process of mixed lymphocyte culture.\nExperiment group 1: Add CPG and TJM2010-5 in the process of mixed lymphocyte culture, where, the added TJM2010-5 is 10 μM.\nExperiment group 2: Add CPG and TJM2010-5 in the process of mixed lymphocyte culture, where, the added TJM2010-5 is 20 μM.\nExperiment group 3: Add CPG and TJM2010-5 in the process of mixed lymphocyte culture, where, the added TJM2010-5 is 40 μM.\n1. Cultivate them until the third day, collect cells and detect the proliferation of C57bl/6 mice lymphopoiesis with flow cytometer."}},
  "data": [
    {"smiles": "O=C(CCN1CCN(Cc2ccccc2)CC1)Nc1nc(-c2ccccc2)cs1", "note": "[TJM2010-5, 3-(4-benzylpiperazin-1-yl)-N-(4-phenylthiazol-2-yl) propanamide]", "values": [
      {"measurement": "colitis finding", "setting": "Balb/c mice; 50 mg/kg intragastric", "result": "No apparent colitis"},
      {"measurement": "mice with colitis and colorectal cancer", "setting": "Balb/c mice; 50 mg/kg intragastric, 20 Balb/c mice per group, observed 10 weeks", "result": 0, "unit": "%"},
      {"measurement": "weights vs untreated group", "setting": "Balb/c mice; 50 mg/kg intragastric, FIG. 12A", "result": "obviously higher than that of untreated group"},
      {"measurement": "survival rate vs control group", "setting": "Balb/c mice; 50 mg/kg intragastric, FIG. 12B", "result": "obviously higher than that of control group"},
      {"measurement": "mice having colitis and colorectal cancer", "setting": "Balb/c mice; FIG. 12C", "result": "no mice"},
      {"measurement": "activation of IRAK4", "setting": "Balb/c mice; FIG. 13A", "result": "inhibit"},
      {"measurement": "p-IRAK4", "setting": "Balb/c mice; FIG. 13A", "result": "reduce"},
      {"measurement": "activation of NF-κB p65", "setting": "Balb/c mice; FIG. 13B", "result": "inhibit"},
      {"measurement": "generation of G-CSF vs control group", "setting": "Balb/c mice; FIG. 13C", "result": "obviously lower than those of control group"},
      {"measurement": "generation of IL-6 vs control group", "setting": "Balb/c mice; FIG. 13C", "result": "obviously lower than those of control group"},
      {"measurement": "generation of MIP-1β vs control group", "setting": "Balb/c mice; FIG. 13C", "result": "obviously lower than those of control group"},
      {"measurement": "generation of TGF-β1 vs control group", "setting": "Balb/c mice; FIG. 13C", "result": "obviously lower than those of control group"},
      {"measurement": "generation of TNF-α vs control group", "setting": "Balb/c mice; FIG. 13C", "result": "obviously lower than those of control group"},
      {"measurement": "level of IL-6 mRNA vs control group", "setting": "Balb/c mice; FIG. 13D", "result": "obviously lower than those of control group"},
      {"measurement": "level of TGF-β1 mRNA vs control group", "setting": "Balb/c mice; FIG. 13D", "result": "obviously lower than those of control group"},
      {"measurement": "infiltration of macrophage", "setting": "Balb/c mice; FIG. 14", "result": "reduce"},
      {"measurement": "F4/80+CD11b+ tumor-associated macrophage in LPMCs", "setting": "Balb/c mice; FIG. 14B", "result": "reduces"},
      {"measurement": "infiltration of Gr-1highCD11bhigh MDSC (myeloid suppressor cells)", "setting": "Balb/c mice; FIG. 14C", "result": "reduce"},
      {"measurement": "expression of IL-6", "setting": "Balb/c mice; FIG. 14D", "result": "reduce"},
      {"measurement": "prevention and cure of chronic colitis and prevention of colorectal cancer", "setting": "Balb/c mice; intragastric", "result": 100, "unit": "%"},
      {"measurement": "up-regulation of costimulatory molecules CD80/CD86 incurred by LPS, CpG", "setting": "DC", "result": "inhibit up-regulation"},
      {"measurement": "expression of CD80 on DC surface", "setting": "DC; DC, 2 h pre-incubation, LPS 1 ug/ml, 12 h, FIG. 3c", "result": "concentration-dependent inhibition"},
      {"measurement": "CD80 expression on DC stimulated by LPS, CPG, cardiac tissue homogenate", "setting": "DC; FIG. 3b", "result": "down-regulate"},
      {"measurement": "incidence rate of diabetes mellitus type I", "setting": "NOD mice", "result": "equivalent to that of MyD88KO homozygote group"},
      {"measurement": "proliferation in T cells with increasing TJM2010-5", "setting": "[1]", "result": "reduces"}
    ]}
  ]
}
